According to US20050101595A1, “N-containing cycloalkyl-substituted amino-thiazole derivatives and pharmaceutical compositions for inhibiting cell proliferation and methods for their use” (PFIZER INC., priority 2003, published 2005):
Counter-ions that a name gives are not always drawn. Like-named read-outs stand apart in the source and are kept apart here. One block for each compound: values may come before it.

What was measured:
[1] = target: human CDK4 and genetically truncated (1-264) cyclin D3 (Homo sapiens, UniProt P11802); assay: Inhibition of CDK4/Cyclin D Retinoblastoma Kinase Activity; format: biochemical; details: for Ki: apparent Ki, CDK4/truncated cyclin D3, Rb fragment substrate, 25 μM ATP
Sequence of human CDK4 and genetically truncated (1-264) cyclin D3 (P11802 whole entry, the tested form may be a part): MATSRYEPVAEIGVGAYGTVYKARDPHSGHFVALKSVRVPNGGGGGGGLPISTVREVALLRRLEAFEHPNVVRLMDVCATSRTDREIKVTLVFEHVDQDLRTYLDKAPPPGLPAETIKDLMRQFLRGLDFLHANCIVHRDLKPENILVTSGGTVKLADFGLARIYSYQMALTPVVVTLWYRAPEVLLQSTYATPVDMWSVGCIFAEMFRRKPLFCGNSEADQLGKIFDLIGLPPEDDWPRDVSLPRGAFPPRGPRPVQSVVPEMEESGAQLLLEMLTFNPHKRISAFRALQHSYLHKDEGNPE
Sequence of human CDK4 and genetically truncated (1-264) cyclin D3 (P30281 1-264 partner): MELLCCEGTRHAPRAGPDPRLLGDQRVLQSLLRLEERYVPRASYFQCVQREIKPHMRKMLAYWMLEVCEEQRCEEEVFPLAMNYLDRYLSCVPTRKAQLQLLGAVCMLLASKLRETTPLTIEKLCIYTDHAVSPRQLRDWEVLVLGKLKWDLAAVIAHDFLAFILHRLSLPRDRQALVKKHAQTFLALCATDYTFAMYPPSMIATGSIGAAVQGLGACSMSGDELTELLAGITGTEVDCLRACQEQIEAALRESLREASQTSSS
Outline: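 Read-out: 32P/33P incorporation into Rb fragment (386-928) captured on nitrocellulose, phosphorimager. Enzyme 5 nM CDK4/cyclin D3(1-264) from insect cells; ATP 25 μM, pH 7.4, 30 °C, 20 min (60 min for tight binders). Ki from competitive fits.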

[2] = target: CDK2/Cyclin A (Homo sapiens, UniProt P24941); assay: Inhibition of CDK2/Cyclin A Retinoblastoma Kinase Activity; format: biochemical; details: for CDK2 % Inhibition At 0.03 μM: Table 2; for Ki: apparent Ki, CDK2/proteolyzed cyclin A, Rb fragment substrate, 25 μM ATP
Outline: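 Human CDK2, baculovirus/insect-cell expressed, complexed with proteolyzed cyclin A (10 nM or 19 nM CDK2) phosphorylates an Rb fragment with 25 μM [32P/33P]ATP at pH 7.4, 30° C, for 60 or 75 minutes under initial-rate conditions. Filter-captured radioactivity is read by phosphorimager; apparent Ki from competitive-inhibition fits.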

[3] = tested on: HCT-116 cell line; assay: Inhibition of cell growth, tetrazolium salt (MTT) assay; format: cell-based; details: for HCT-116 % Inhibition at 0.25 μM: 0.25 μM compound; for IC50: Homo sapiens, HCT-116, 120 h, MTT, three to five days, read-out: HCT-116 IC50
Outline: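 Growth inhibition by MTT reduction at 540 nm (0.2 mg/mL, 4 h at 37° C, formazan dissolved in DMSO), normalized to cells given only 0.5% v/v DMSO. HCT-116 cultures in McCoy's 5A were dosed 4 h post-plating and kept three to five days at 37° C, 5% CO2.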

[4] = 0.1 μM compound, HCT-116, Table 4
[5] = 0.1 μM compound, HCT-116, Table 3

SMILES: COC(=O)c1ccccc1NC(=O)N1CCC(Nc2nc(N)c(C(=O)c3c(F)cccc3F)s2)CC1 [Example O39]
CDK4 % Inhibition at 0.03 μM ([1]; 0.03 μM compound, Table 2): 13%
CDK2 % Inhibition At 0.03 μM ([2]; 0.03 μM compound): 32%
HCT-116 % Inhibition at 0.25 μM ([3]; HCT-116, Table 2): 27%

SMILES: Nc1nc(NC2CCN(S(=O)(=O)c3ccc(OCc4cccnc4)nc3)CC2)sc1C(=O)c1c(F)cccc1F [Example H8, 1-(4-Amino-2-{1-[6-(pyridin-3-ylmethoxy)-pyridine-3-sulfonyl]-piperidin-4-ylamino}-thiazol-5-yl)-1-(2,6-difluoro-phenyl)-methanone Trifluoroacetic Acid Salt]
Ki [1]: 0.67 nM
Ki [2]: < 1 nM
IC50 ([3]; first HCT-116 column (c4)): 580 nM
IC50 ([3]; second HCT-116 column (c5)): 1300 nM

SMILES: Nc1nc(NC2CCN(S(=O)(=O)c3ccccc3)CC2)sc1C(=O)c1c(F)cccc1F [Example P8]
CDK4 % Inhibition at 0.03 μM ([1]; 0.03 μM compound, Table 3): 72%
CDK2 % Inhibition at 0.03 μM ([2]; 0.03 μM compound, Table 3): 73%
HCT-116 % Inhibition at 0.1 μM [3, 5]: 37%
HCT-116 % Inhibition at 0.25 μM ([3]; HCT-116, Table 3): 33%

SMILES: COC(=O)c1sccc1S(=O)(=O)N1CCC(Nc2nc(N)c(C(=O)c3c(F)cccc3F)s2)CC1 [Example P63]
CDK4 % Inhibition at 0.03 μM ([1]; 0.03 μM compound, Table 3): 66%
CDK2 % Inhibition at 0.03 μM ([2]; 0.03 μM compound, Table 3): 71%
HCT-116 % Inhibition at 0.1 μM [3, 5]: 23%
HCT-116 % Inhibition at 0.25 μM ([3]; HCT-116, Table 3): 40%

SMILES: Nc1nc(NC2CCN(C(=O)Nc3ccc(C(F)(F)F)cc3)CC2)sc1C(=O)c1c(F)cccc1F [Example O23]
CDK4 % Inhibition at 0.03 μM ([1]; 0.03 μM compound, Table 2): 10%
CDK2 % Inhibition At 0.03 μM ([2]; 0.03 μM compound): 36%
HCT-116 % Inhibition at 0.25 μM ([3]; HCT-116, Table 2): 24%

SMILES: Nc1nc(NC2CCN(S(=O)(=O)c3ccc(C(=O)O)cc3)CC2)sc1C(=O)c1c(F)cccc1F [Example P21]
CDK4 % Inhibition at 0.03 μM ([1]; 0.03 μM compound, Table 3): 32%
CDK2 % Inhibition at 0.03 μM ([2]; 0.03 μM compound, Table 3): 23%
HCT-116 % Inhibition at 0.1 μM [3, 5]: 19%
HCT-116 % Inhibition at 0.25 μM ([3]; HCT-116, Table 3): 29%

SMILES: C[C@@H]1CN(c2ccc(S(=O)(=O)N3CCC(Nc4nc(N)c(C(=O)c5c(F)cccc5F)s4)CC3)cn2)C[C@H](C)N1 [Example G15, 1-(4-Amino-2-{1-[6-(3,5-dimethyl-piperizin-1-yl)-pyridin-3-sulfonyl]-piperidin-4-ylamino}-thiazol-5-yl)-1-(2,6-difluoro-phenyl)-methanone Trifluoroacetic Acid Salt]
Ki [1]: 0.28 nM
Ki [2]: 0.73 nM
IC50 ([3]; first HCT-116 column (c4)): 79 nM
IC50 ([3]; second HCT-116 column (c5)): > 500 nM

The next lines start with results.

CDK4 % Inhibition at 0.03 μM ([1]; 0.03 μM compound, Table 4): 49%
CDK2 % Inhibition at 0.03 μM ([2]; 0.03 μM compound, Table 4): 33%
SMILES: Nc1nc(NC2CCN(C(=O)c3cccc4ccccc34)CC2)sc1C(=O)c1c(F)cccc1F [Example Q62]
HCT-116 % Inhibition at 0.1 μM [3, 4]: 12%
HCT-116 % Inhibition at 0.25 μM ([3]; HCT-116, Table 4): 53%

CDK4 % Inhibition at 0.03 μM ([1]; at 0.03 μM): 22%
CDK2 % Inhibition at 0.03 μM ([2]; at 0.03 μM): −9%
SMILES: Cc1noc(C)c1C(=O)N1CCC(Nc2nc(N)c(C(=O)c3c(F)cccc3F)s2)CC1 [Example R25]
HCT-116 % Inhibition at 0.1 μM ([3]; HCT-116 cells, at 0.1 μM): 0%
HCT-116 5 Inhibition at 0.25 μM ([3]; HCT-116 cells): 43

CDK4 % Inhibition at 0.03 μM ([1]; at 0.03 μM): 70%
CDK2 % Inhibition at 0.03 μM ([2]; at 0.03 μM): 67%
SMILES: Nc1nc(NC2CCN(C(=O)c3cccc(O)c3)CC2)sc1C(=O)c1c(F)cccc1F [Example R138]
HCT-116 % Inhibition at 0.1 μM ([3]; HCT-116 cells, at 0.1 μM): 0%
HCT-116 5 Inhibition at 0.25 μM ([3]; HCT-116 cells): 40

CDK4 % Inhibition at 0.03 μM ([1]; at 0.03 μM): 23%
CDK2 % Inhibition at 0.03 μM ([2]; at 0.03 μM): 5%
SMILES: Nc1nc(NC2CCN(C(=O)c3cnn(-c4ccccc4)c3C(F)(F)F)CC2)sc1C(=O)c1c(F)cccc1F [Example R52]
HCT-116 % Inhibition at 0.1 μM ([3]; HCT-116 cells, at 0.1 μM): 2%
HCT-116 5 Inhibition at 0.25 μM ([3]; HCT-116 cells): 49

CDK4 % Inhibition at 0.03 μM ([1]; at 0.03 μM): 53%
CDK2 % Inhibition at 0.03 μM ([2]; at 0.03 μM): 26%
SMILES: CC(=Cc1ccccc1)C(=O)N1CCC(Nc2nc(N)c(C(=O)c3c(F)cccc3F)s2)CC1 [Example R161]
HCT-116 % Inhibition at 0.1 μM ([3]; HCT-116 cells, at 0.1 μM): 0%
HCT-116 5 Inhibition at 0.25 μM ([3]; HCT-116 cells): 34

CDK4 % Inhibition at 0.03 μM ([1]; at 0.03 μM): 80%
CDK2 % Inhibition at 0.03 μM ([2]; at 0.03 μM): 58%
SMILES: COC(=O)c1ccc(C(=O)N2CCC(Nc3nc(N)c(C(=O)c4c(F)cccc4F)s3)CC2)cc1 [Example R33]
HCT-116 % Inhibition at 0.1 μM ([3]; HCT-116 cells, at 0.1 μM): 1%
HCT-116 5 Inhibition at 0.25 μM ([3]; HCT-116 cells): 49

CDK4 % Inhibition at 0.03 μM ([1]; 0.03 μM compound, Table 4): 53%
CDK2 % Inhibition at 0.03 μM ([2]; 0.03 μM compound, Table 4): 24%
SMILES: Nc1nc(NC2CCN(C(=O)c3ccccc3I)CC2)sc1C(=O)c1c(F)cccc1F [Example Q52]
HCT-116 % Inhibition at 0.1 μM [3, 4]: 0%
HCT-116 % Inhibition at 0.25 μM ([3]; HCT-116, Table 4): 24%

CDK4 % Inhibition at 0.03 μM ([1]; 0.03 μM compound, Table 4): 40%
CDK2 % Inhibition at 0.03 μM ([2]; 0.03 μM compound, Table 4): 32%
SMILES: Nc1nc(NC2CCN(C(=O)C3CCCC3)CC2)sc1C(=O)c1c(F)cccc1F [Example Q57]
HCT-116 % Inhibition at 0.1 μM [3, 4]: 0%
HCT-116 % Inhibition at 0.25 μM ([3]; HCT-116, Table 4): 32%
